Experimental data as given in publication PMC12494820, “Predicting input signals of transcription factors in Escherichia coli” (Molecular Systems Biology, 2025).

Columns and labels:
LeuO = molecular target: T1, LeuO (Escherichia coli, UniProt P10151); experiment: thermal shift assay (Protein Thermal Shift Dye); assay type: binding; conditions: 10 mM compound; LeuO with leuLABCD promoter DNA; pH 7.5, EMSA buffer without BSA; activating effector
T1 sequence (P10151 1-314): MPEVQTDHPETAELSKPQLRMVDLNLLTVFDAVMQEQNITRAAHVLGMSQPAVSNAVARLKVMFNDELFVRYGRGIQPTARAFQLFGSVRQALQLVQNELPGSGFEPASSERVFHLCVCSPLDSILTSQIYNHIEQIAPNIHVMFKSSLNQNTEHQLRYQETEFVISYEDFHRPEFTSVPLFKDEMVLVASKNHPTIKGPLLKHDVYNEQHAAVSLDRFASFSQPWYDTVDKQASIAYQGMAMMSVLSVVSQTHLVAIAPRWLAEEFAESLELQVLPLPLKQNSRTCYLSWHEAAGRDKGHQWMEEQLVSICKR

LeuO (Escherichia coli) = experiment: EMSA; conditions: EMSA: 10 mM Tris-HCl, 50 mM KCl, 5 mM MgCl2, 5% glycerol, 0.1 mg/ml BSA, pH 7.5, 500 ng salmon sperm DNA in 20 µl, 15 min at room temperature; gel 0.5x TBE at …

For `CC(C)[C@@](O)(CC(=O)O)C(=O)O` [2-IPM, 2-isopropylmalate], the ΔTm (LeuO) was 1.6 °C.

leuLABCD promoter region fragment gave a K half (LeuO (Escherichia coli)) of 25 nM.
